Tested on: HER2 overexpressing cells (SK-BR-3, BT-474, N87)
Assay: Drug combinations with PB4188 in vitro (checkerboard, isobolograms)
Assay type: cell-based, human
Settings: HER2 amplified cells, HRG
Experimental: Moreover, combination with chemotherapeutic drugs and cyclin inhibitors were tested. Combinations were tested on HER2 overexpressing cells growing in the presence of HRG in […]® (SK-BR-3 and BT-474) or in the presence of HRG stress concentrations (N87 and SK-BR-3 as described in proliferation assays). The inhibitory effect of drug combinations was tested by imaging or by measuring proliferation using Alamar Blue as described herein before. […] The extent of growth inhibition obtained with each combination was calculated. […] The inhibition values of the combination experiments were used by CHALICE™ Analyzer software to generate the isobolograms.

Structure (SMILES) | Drug combination with PB4188 (isobologram analysis)
Cc1nc(NC(=O)N2CCC[C@H]2C(N)=O)sc1-c1ccnc(C(C)(C)C(F)(F)F)c1 [BYL719] | synergistic
NC1(c2ccc(-c3nc4ccn5c(=O)[nH]nc5c4cc3-c3ccccc3)cc2)CCC1 [MK-2206] | synergistic
CO[C@H]1C[C@@H]2CC[C@@H](C)[C@@](O)(O2)C(=O)C(=O)N2CCCC[C@H]2C(=O)O[C@H]([C@H](C)C[C@@H]2CC[C@@H](OCCO)[C@H](OC)C2)CC(=O)[C@H](C)/C=C(\C)[C@@H](O)[C@@H](OC)C(=O)[C@H](C)C[C@H](C)/C=C/C=C/C=C/1C [everolimus] | synergistic
CS(=O)(=O)CCNCc1ccc(-c2ccc3ncnc(Nc4ccc(OCc5cccc(F)c5)c(Cl)c4)c3c2)o1 [lapatinib] | synergistic
CCOc1cc2ncc(C#N)c(Nc3ccc(OCc4ccccn4)c(Cl)c3)c2cc1NC(=O)/C=C/CN(C)C [neratinib] | synergistic
CC(=O)O[C@H]1C(=O)[C@@]2(C)[C@H]([C@H](OC(=O)c3ccccc3)[C@]3(O)C[C@H](OC(=O)[C@H](O)[C@@H](NC(=O)c4ccccc4)c4ccccc4)C(C)=C1C3(C)C)[C@]1(OC(C)=O)CO[C@@H]1C[C@@H]2O [paclitaxel] | synergistic
O=C(CCCCCCC(=O)Nc1ccccc1)NO [vorinostat] | synergistic

From US20230242669A1, “ANTIBODY THAT BINDS ERBB-2 AND ERBB-3” (Merus N.V., priority 2014, published 2023)
